According to patent US20080103201A1, “Novel alpha-Glucosidase inhibitor from Tabernaemontana dichotoma” (priority 2006, published 2008):

Tests used:
[1] = target: α-glucosidase (E.C.3.2.1.20); experiment: α-Glucosidase enzyme inhibition assay (PNP-G substrate, spectrophotometric); assay type: biochemical
Description: α-Glucosidase (E.C.3.2.1.20) enzyme inhibition assay was performed according to the slightly modified method of Matsui et al. α-glucosidase (E.C.3.2.1.20) from Saccharomyces species, purchased from Wako Pure Chemical Industries Ltd. (Wako 076-02841). The enzyme inhibition was measured spectrophotometrically at pH 6.9 and at 37° C. using 0.7 mM p-nitrophenyl-α-D-glucopyranoside (PNP-G) as a substrate and 500 m units/mL enzyme, in 50 mM sodium phosphate buffer containing 100 mM NaCl. […] The increment in absorption at 400 nm, due to the hydrolysis of PNP-G by α-glucosidase, was monitored continuously on microplate spectrophotometer (Spectra Max Molecular Devices, USA).) [T. Matsui, C. Yoshimoto, K. Osajima, T. Oki, and Y. Osajima. Biosci. Biotech. Biochem., 1996, 60, 2019].

[2] = Post-prandial blood glucose concentration in rats; assay type: in vivo

IC50 ([1]; pH 6.9, 37° C., 0.7 mM PNP-G substrate, 500 m units/mL enzyme): 22.27 ± 0.112 µM | potency compared with Acarbose (times) ([1]; α-glucosidase inhibition, relative to acarbose): approximately 35 times
Structure (SMILES): CC(=O)OC1CCC2(C)C(CCC3(C)C2CC=C2C4CC(C)(C)CCC4(C)CCC23C)C1(C)C (stereo not drawn) [β-Amyrin acetate, 12-Oleanen-3-yl acetate]
post-prandial blood glucose concentration [2]: reduced
